Test results as given in PMC7961521 (2021).

What was measured:
[1] = test system: H50 template annealed to primer H50/c49 (DNA, G4) AGGGTTAGGGTTAGGGTTAGGGGCCACCGCAATTGCTATAGTGAGTCGT/ACGACTCACTATAGCAATTGCG; experiment: Taq polymerase stop assay; settings: 100 mM KCl, Mg2+; Tris-HCl pH 8.0; extension at 40 °C
[2] = test system: c49 (C49) template annealed to primer H50/c49 (DNA, G4) TGAGGGTGGGGAGGGTGGGGAAGCCACCGCAATTGCTATAGTGAGTCGT/ACGACTCACTATAGCAATTGCG; experiment: Taq polymerase stop assay; settings: 100 mM KCl, Mg2+; Tris-HCl pH 8.0; extension at 50 °C
[3] = test system: 4G (DNA, G4) AGGGTTAGGGTTAGGGTTAGGGTTACCTAGGCATCCTCCAGTTCCTGGAGTCAGTG; experiment: fluorescence Job's plot; settings: 100 mM KCl; 1×PBS pH 7.4, 37 °C; total concentration 5 µM
[4] = test system: RG4 (RNA, G4) AAGGAAGGGGAAGUCAGGUGGGGCCUGGGGAACCAGGAAGCGGGGAACAGG; experiment: fluorescence Job's plot; settings: 100 mM KCl; 1×PBS pH 7.4, 37 °C; total concentration 5 µM
[5] = test system: 4G template annealed to primer P31 (DNA, G4) AGGGTTAGGGTTAGGGTTAGGGTTACCTAGGCATCCTCCAGTTCCTGGAGTCAGTG/CACTGACTCCAGGAACTGGAGGATGCCTAGG; experiment: Taq polymerase stop assay; settings: 100 mM KCl, Mg2+; Tris-HCl pH 8.0; 0 to 100 µM ligand; extension at 40 °C
[6] = test system: 3G template annealed to primer P31 (DNA, G4) TTAGGGTTAGGGTTAGGGTTACCTAGGCATCCTCCAGTTCCTGGAGTCAGTG/CACTGACTCCAGGAACTGGAGGATGCCTAGG; experiment: Taq polymerase stop assay; settings: 100 mM KCl, Mg2+; Tris-HCl pH 8.0; 0 to 100 µM ligand; extension at 40 °C
[7] = test system: 3G (DNA, G4) TTAGGGTTAGGGTTAGGGTTACCTAGGCATCCTCCAGTTCCTGGAGTCAGTG; experiment: fluorescence, reporter dye in displacement assay; settings: 100 mM KCl; 10 mM Tris-HCl pH 7.2; dye 1 µM, DNA 0.5 µM
[8] = test system: 4G (DNA, G4) AGGGTTAGGGTTAGGGTTAGGGTTACCTAGGCATCCTCCAGTTCCTGGAGTCAGTG; experiment: fluorescence, reporter dye in displacement assay; settings: 100 mM KCl; 10 mM Tris-HCl pH 7.2; dye 1 µM, DNA 0.5 µM
[9] = test system: RG4 (RNA, G4) AAGGAAGGGGAAGUCAGGUGGGGCCUGGGGAACCAGGAAGCGGGGAACAGG; experiment: fluorescent dye displacement; settings: 100 mM KCl; 10 mM Tris-HCl pH 7.2; B6,5 1 µM displaced; 0.5 µM nucleic acid; 1 equivalent of ligand
[10] = test system: 3G (DNA, G4) TTAGGGTTAGGGTTAGGGTTACCTAGGCATCCTCCAGTTCCTGGAGTCAGTG; experiment: fluorescent dye displacement; settings: 100 mM KCl; 10 mM Tris-HCl pH 7.2; B6,5 1 µM displaced; 0.5 µM nucleic acid
[11] = test system: 4G (DNA, G4) AGGGTTAGGGTTAGGGTTAGGGTTACCTAGGCATCCTCCAGTTCCTGGAGTCAGTG; experiment: fluorescent dye displacement; settings: 100 mM KCl; 10 mM Tris-HCl pH 7.2; B6,5 1 µM displaced; 0.5 µM nucleic acid

Row | Structure (SMILES) | binding [7] | % displacement of B6,5 [9] | binding [10] | binding [11] | also measured
1 | C1=C2Sc3ccccc3N2CCCCCCN2C(=C/C=C/C=C/c3sc4ccccc4[n+]3CCCCCC[n+]3c(sc4ccccc43)/C=C/C=C/1)Sc1ccccc12 | yes |  |  |  | binding [1]: yes; binding [2]: yes; binding [3]: yes; binding [4]: yes; binding [5]: yes; binding [6]: yes
2 | CN1C(=Cc2cc[n+](C)c3ccccc23)Sc2ccccc21 | yes |  |  |  | binding [8]: yes
3 | CN1CCC[C@H]1CCNC(=O)c1cn2c3c(c(N4CCC(c5cnccn5)C4)c(F)cc3c1=O)Oc1cc3ccccc3cc1-2 (some centres unmarked) |  | > 60% | yes | yes | 
4 | C[n+]1ccc(-c2c3nc(c(-c4cc[n+](C)cc4)c4ccc([nH]4)c(-c4cc[n+](C)cc4)c4nc(c(-c5cc[n+](C)cc5)c5ccc2[nH]5)C=C4)C=C3)cc1 |  | > 60% | yes | yes | 
5 | O=C(/C=C/C=C/c1ccc2c(c1)OCO2)N1CCCCC1 |  |  | weak | yes | 
6 | O=C(c1cc(Cc2n[nH]c(=O)c3ccccc23)ccc1F)N1CCN(C(=O)C2CC2)CC1 |  | > 60% | weak | yes | 
